# From publication PMC9369419 (International Journal of Molecular Sciences, 2022)
# Assays:
# GluK2 = target: T1, GluK2 (Rattus norvegicus, UniProt P42260); assay: Radioligand binding at recombinant homomeric GluK2 in Sf9 membranes; conditions: recombinant rat homomeric receptor, [3H]-kainic acid, mean ± SEM
# T1 construct: made in house; host or cells: Sf9 insect cells (membranes)
# Description: Ligand binding affinities at recombinant rat homomeric GluA2, GluK1−3, and GluK5 were determined as previously detailed. […] The filters were dried at 70 °C for 1 h, and 50 μL/well Microscint 20 (PerkinElmer, Waltham, MA, USA) was added. Radioactivity was detected with a TopCounter (PerkinElmer, Waltham, MA, USA). GluA2 and GluK5 assays were filtered on GF/C type filters using Millipore 12-well filtration manifolds (Merck Life Science, Søborg, Denmark) and washed twice with ice-cold assay buffer. Filters were placed in pony vials (PerkinElmer, Waltham, MA, USA), 3 mL of Ultima Gold scintillation fluid (PerkinElmer, Waltham, MA, USA) was added, and DPM (disintegrations per minute) were determined using a TriCarb 2900 scintillation counter (PerkinElmer, Waltham, MA, USA).
# All competition curves (n ≥ 3 per ligand) were determined in triplicate. Data were analyzed using GraphPad Prism 6 (GraphPad Software, San Diego, CA, USA) to determine ligand affinity (Ki) and Hill coefficient (nH) using the one-site Ki and four-parameter logistics equations, respectively.
# human mGluR4 = target: T2, human mGluR4 (Homo sapiens, UniProt Q14833); assay: mGluR4 functional assay (IP1 accumulation, HEK293A cells); assay type: cell-based; conditions: 0.1 mM compound
# T2 construct: expressed in transfected cells; host or cells: HEK293A (transient, Lipofectamine 2000)
# T2 sequence (Q14833 33-912): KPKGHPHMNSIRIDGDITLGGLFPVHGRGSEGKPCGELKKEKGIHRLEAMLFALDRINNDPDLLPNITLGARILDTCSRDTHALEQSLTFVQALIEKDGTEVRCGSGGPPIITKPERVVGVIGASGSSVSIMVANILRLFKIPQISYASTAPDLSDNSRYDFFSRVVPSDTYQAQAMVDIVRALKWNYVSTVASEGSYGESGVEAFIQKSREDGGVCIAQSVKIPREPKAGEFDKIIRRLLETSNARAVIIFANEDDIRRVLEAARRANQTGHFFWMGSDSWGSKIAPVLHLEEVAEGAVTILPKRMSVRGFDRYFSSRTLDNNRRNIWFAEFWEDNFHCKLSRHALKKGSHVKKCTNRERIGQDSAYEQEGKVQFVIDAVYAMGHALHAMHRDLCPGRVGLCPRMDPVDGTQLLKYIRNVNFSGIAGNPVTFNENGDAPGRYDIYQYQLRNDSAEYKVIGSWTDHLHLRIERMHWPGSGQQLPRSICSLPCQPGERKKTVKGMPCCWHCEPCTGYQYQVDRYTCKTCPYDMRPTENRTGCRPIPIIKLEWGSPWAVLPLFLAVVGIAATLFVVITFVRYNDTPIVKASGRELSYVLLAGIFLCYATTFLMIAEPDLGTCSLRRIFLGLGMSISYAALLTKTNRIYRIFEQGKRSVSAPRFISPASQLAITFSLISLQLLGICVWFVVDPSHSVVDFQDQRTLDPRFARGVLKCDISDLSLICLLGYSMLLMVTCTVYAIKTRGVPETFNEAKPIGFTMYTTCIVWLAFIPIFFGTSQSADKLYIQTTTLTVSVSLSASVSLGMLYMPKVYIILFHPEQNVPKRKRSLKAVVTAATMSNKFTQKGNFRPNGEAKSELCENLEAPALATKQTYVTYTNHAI
# Description: Dulbecco’s modified Eagle medium (DMEM), dialyzed fetal bovine serum (FBS), Opti-MEM, penicillin-streptomycin, Dulbecco’s phosphate-buffered saline (DPBS), Hank’s balanced salt solution (HBSS) and Lipofectamine 2000 were purchased from Thermo Fisher Scientific (Waltham, MA, USA). An IP-One Gq kit was purchased from Cisbio (Codolet, France). Quisqualate and poly-D-lysine (PDL) hydrobromide were purchased from Sigma-Aldrich (St. Louis, MO, USA). Falcon clear, tissue culture-treated 96-well plates were from Corning Inc. (Corning, NY, USA). OptiPlate-384 white, opaque 384-well plates were from PerkinElmer, (Waltham, MA, USA). L-AP4 and LY341495 were purchased from Tocris Bioscience (Bristol, UK). The HEK293A cells were a kind gift from Dr. Asuka Inoue (Tohoku University, Sendai, Japan). Plasmids encoding human mGluR4 and Flag-tagged human mGluR5 were kind gifts from Jesper M. Mathiesen (University of Copenhagen, København, Denmark). […]
# Cell culture and IP1 Assay. […] IP1 accumulation was measured on an EnVision 2104 Multilabel Reader using a 340/60 nm excitation filter and 615/8.5 nm (donor) and 665/7.5 nm (acceptor) emission filters. HTRF ratios were calculated as the ratio of acceptor over donor emission (665 nm/615 nm) and converted to IP1 concentrations with an IP1 standard curve according to the instructions from the kit manufacturer.
# mGluR2 = mGluR2 functional assay (Ca2+/Fluo-4, mGlu2/Gqo5-HEK293 cells); assay type: cell-based; conditions: 0.1 mM compound
# Description: Culture media, serum, antibiotics and buffers for cell culture were obtained from Invitrogen (Paisley, UK). The Fluo-4/AM dye was obtained from Molecular Probes (Eugene, OR, USA), and Glu was purchased from Sigma-Aldrich. The construction and basic pharmacological characterization of the stable mGlu2/Gqo5-HEK293 cell line has been described previously.
# Cell culture and Ca^2+/Fluo-4 Assay. The mGlu2/Gqo5-HEK293 cells were cultured in Dulbecco’s Modified Eagle Medium-Glutamax-I supplemented with 100 U/mL penicillin, 100 µg/mL streptomycin, 5% dialyzed fetal bovine serum, 100 µg/mL zeocin and 1 mg/mL G418. The cells were split into poly-D-lysine-coated black 96-well plates with clear bottoms (6 × 10^4 cells/well). The following day, the culture medium was aspirated, and the cells were incubated in 50 µL assay buffer (Hanks Buffered Salt Solution containing 20 mM HEPES, 1 mM CaCl2, 1 mM MgCl2 and 2.5 mM probenecid, pH 7.4) supplemented with […] Fluo–4/AM at 37 °C for 1 h. […] The 96-well plate was assayed in a FLEXStation (Molecular Devices, Crawley, UK) measuring emission (in fluorescence units (FU)) at 525 nm caused by excitation at 485 nm before and up to 90 s after the addition of 33.3 µL agonist-containing assay buffer. […]
# T1 sequence (P42260 32-908): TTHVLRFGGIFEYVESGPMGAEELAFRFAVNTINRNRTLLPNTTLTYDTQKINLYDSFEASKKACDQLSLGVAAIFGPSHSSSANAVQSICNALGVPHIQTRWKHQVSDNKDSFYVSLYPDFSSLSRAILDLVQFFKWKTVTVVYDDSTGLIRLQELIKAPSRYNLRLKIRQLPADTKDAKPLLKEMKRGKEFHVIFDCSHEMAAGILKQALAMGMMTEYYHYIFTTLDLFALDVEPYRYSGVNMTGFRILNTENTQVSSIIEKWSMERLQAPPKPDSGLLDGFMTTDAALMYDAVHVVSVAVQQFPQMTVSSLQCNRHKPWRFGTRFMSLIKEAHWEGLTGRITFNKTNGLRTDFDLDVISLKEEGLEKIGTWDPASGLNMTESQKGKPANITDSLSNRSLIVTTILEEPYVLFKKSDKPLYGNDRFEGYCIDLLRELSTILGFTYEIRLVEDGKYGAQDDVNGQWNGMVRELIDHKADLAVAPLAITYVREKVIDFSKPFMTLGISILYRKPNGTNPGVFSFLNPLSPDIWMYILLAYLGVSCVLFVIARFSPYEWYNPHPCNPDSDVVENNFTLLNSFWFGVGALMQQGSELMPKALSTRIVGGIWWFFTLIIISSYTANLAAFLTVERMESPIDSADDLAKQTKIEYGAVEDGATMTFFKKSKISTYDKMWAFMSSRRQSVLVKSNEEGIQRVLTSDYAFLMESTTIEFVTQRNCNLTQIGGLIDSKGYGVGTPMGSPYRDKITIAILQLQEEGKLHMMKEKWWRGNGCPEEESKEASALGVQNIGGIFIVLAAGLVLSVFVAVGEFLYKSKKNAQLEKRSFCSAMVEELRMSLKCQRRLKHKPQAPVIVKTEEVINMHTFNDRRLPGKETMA
compound,measurement,setting,value
O=C(Nn1c(=O)c(=O)[nH]c2cc(C#Cc3cnc4cccnn34)ccc21)c1ccccc1 [Compound 28],Ki,GluK2,> 100 µM
same,agonist or antagonist activity at mGluR4,human mGluR4,neither agonistic nor antagonistic
same,agonist or antagonist activity at mGluR2,mGluR2,neither agonistic nor antagonistic
